# Laboratory results reported in patent US20260198499A1, “PLANT STOMATAL OPENING REGULATOR” (priority 2022, published 2026).
# Where two headings read alike, the source gives them in different places.
# What was measured:
# [1] = test system: plasma membrane proton pump (H+-ATPase) phosphorylation in guard cells; test: Immunohistochemical measurement of blue light- and fusicoccin-induced phosphorylation of the plasma membrane proton pump in guard cells; format: cell-based, Arabidopsis thaliana; settings: compound 1 100 μM, compound 4 20 µM, compound 5 20 μM, FIG. 2; for inhibitory effect on blue light-induced phosphorylation of the plasma membrane proton pump: Arabidopsis guard cells; for inhibitory effect on fusicoccin-induced phosphorylation of the plasma membrane proton pump: fusicoccin 10 μM
# Experimental: Blue light- and fusicoccin-induced phosphorylation of the plasma membrane proton pump in guard cells from the epidermis of Arabidopsis thaliana was measured immunohistochemically as previously reported (Hayashi et al. (2011) Immunohistochemical detection of blue light-induced phosphorylation of the plasma membrane H^+-ATPase in stomatal guard cells. Plant Cell Physiol. 52:1238-1248). The test compounds used were compound 1 (BITC), compound 4 (m-Bis-BITC), and compound 5 (Tris-BITC). The concentration of compound 1 during action was 100 μM, the concentration of compound 4 during action was 20 µM, the concentration of compound 5 during action was 20 μM, and the concentration of fusicoccin during action was 10 μM.
# [2] = test system: stomatal opening of leaf disks; test: Stomatal opening regulatory action measurement test 2 (light- and fusicoccin-induced stomatal opening); format: cell-based, Commelina benghalensis; settings: compound 1 100 μM, FIG. 1
# Experimental: (§1) Part of the stem of Commelina benghalensis was inserted into a planter filled with mixed soil of vermiculite and peat moss, and grown indoors with natural light (room temperature: 25±3° C.) for 2 to 4 weeks. The planter was placed in a dark room and subjected to dark treatment overnight. After the dark treatment, leaf disks with a diameter of 4 mm were cut from fully expanded leaves using a hole punch (Biospy Punch, Kai Medical).
# […] After incubation, stomatal closure was evaluated under observation images (600×) using a stereofluorescence microscope (Leica M205FA). The minor diameter of about 20 stomata (hereinafter referred to as “stomatal aperture”) was measured for each leaf disk. Based on the measured values of stomatal aperture at each concentration for each test compound, the 50% inhibitory concentration (IC50) of stomatal aperture was calculated.
# Compound 1 (BITC: benzyl isothiocyanate) (final concentration in the test solution: 100 μM) and abscisic acid (final concentration in the test solution: 20 µM) were used as test compounds. A test solution was also prepared by adding fusicoccin (final concentration: 10 μM) in addition to the test compound. […] The mean and standard deviation (SD) were calculated based on the measured values.
# [3] = test system: ABA-related responses in Arabidopsis thaliana; test: ABA-related responses (seed germination, ABA-responsive genes RAB18 and RD29B); format: in vivo
# [4] = test system: stomatal aperture of Commelina benghalensis leaf disks; test: Stomatal opening regulatory action measurement test 1 (IC50 of stomatal aperture, leaf disks); format: cell-based; settings: read-out: IC50 (50% inhibitory concentration of stomatal aperture)
# Experimental: as §1
# Each test solution was dispensed into five wells of a 96-well plate at 50 μl/well, and the leaf disks were immersed therein, followed by incubation under light irradiation (50 μmol m^−2s^−1 blue light) for 3 hours. After incubation, stomatal closure was evaluated under observation images (600×) using a stereofluorescence microscope (Leica M205FA). The minor diameter of about 20 stomata (hereinafter referred to as “stomatal aperture”) was measured for each leaf disk.
# [5] = test system: stomatal opening in intact leaves of chrysanthemums; test: Stomatal opening regulatory action measurement test 3 (intact chrysanthemum leaves); format: in vivo; settings: for inhibitory effect on stomatal opening in intact leaves: chrysanthemum leaves immersed in test solution, white light 3 hours, FIGS. 4 and 5
# Experimental: (§2) A bouquet of chrysanthemums (Chrysanthemum) was purchased and cultured in a water bottle at 24° C. with a photoperiod of 16 h white light (100 μmol m^−2s^−1)/8 h darkness for 2 days. After the dark period ended, the leaves were immersed in a test solution (0.033% Makupika (spreader, Isk Biosciences K. K.)) containing the test compound (compound 1 (BITC), compound 4 (m-Bis-BITC), or abscisic acid (ABA)) and incubated under white light (100 μmol m^−2s^−1) for 3 hours or incubated with a photoperiod of 16 h light/16 h darkness (light→dark→light) for 48 hours. After incubation, the stomatal aperture was measured in the same manner as in Test Example 1.
# [6] = test system: ABA-responsive kinase substrate (AKS); test: Immunoblot analysis of phosphorylation of ABA-responsive kinase substrate (AKS) in guard cells; format: cell-based; settings: compound 1 100 μM; Vicia faba guard cells; FIG. 3
# Experimental: Abscisic acid (ABA)-induced phosphorylation of ABA-responsive kinase substrate (AKS) in guard cells from the epidermis of broad bean (Vicia faba) was measured by immunoblot analysis as previously reported (Takahashi et al. (2007) Protein Phosphorylation and Binding of a 14-3-3 Protein in Vicia Guard Cells in Response to ABA. Plant and Cell Physiology. 48:1182-1191). The test compounds used were compound 1 (BITC) and abscisic acid. The concentration of compound 1 during action was 100 μM, and the concentration of abscisic acid during action was 20 μM.
# [7] = test system: chrysanthemums (Chrysanthemum); test: Drought tolerance test 1 (dehydrated chrysanthemum bouquet); format: in vivo; settings: 21° C., 90 minutes, relative humidity 35 to 40%, FIG. 6
# Experimental: as §2
# After incubation for 3 hours in Test Example 5, the bouquet was dehydrated and incubated at 21° C. for 90 minutes under 10 μmol m^−2s^−1 white light at a relative humidity of 35 to 40%.
# [8] = test system: Chinese cabbage (Brassica rapa); test: Drought tolerance test 2 (sprayed Chinese cabbage, water depleted); format: in vivo; settings: Chinese cabbage sprayed with 50 μM, 24 hours, 25° C., relative humidity 40 to 50%, FIG. 7
# Experimental: A test solution (0.033% Makupika (spreader, Isk Biosciences K.K.)) containing compound 4 (m-Bis-BITC) was sprayed onto 4- to 5-week-old Chinese cabbage (Brassica rapa) growing in 110 ml of soil. The concentration of compound 4 in the test solution was 50 μM. Then, the water was depleted, and the plants were cultured for 24 hours in a greenhouse at 25° C. at a relative humidity of 40 to 50% on a sunny day.
# [9] = Commelina benghalensis leaf disks, 3 hours under 50 μmol m−2s−1 blue light
smiles,measurement,setting,value
"S=C=NCc1ccccc1 [Compound 1, benzyl isothiocyanate]",inhibitory effect on blue light-induced phosphorylation of the plasma membrane proton pump,[1],inhibitory effects
same,inhibitory effect on fusicoccin-induced phosphorylation of the plasma membrane proton pump,[1],inhibitory effects
same,inhibitory effect on stomatal opening compared with abscisic acid,"[2]; abscisic acid 20 µM, 3 hours red and blue light",more potent inhibitory effect on stomatal opening than abscisic acid
same,inhibitory effect on stomatal opening induced by fusicoccin,"[2]; fusicoccin 10 μM, 3 hours",exhibited an inhibitory effect on stomatal opening induced by fusicoccin
same,"effect on ABA-related responses, including inhibition of seed germination and induction of ABA-responsive genes (RAB18 and RD29B)",[3],no effect
same,IC50,[4]; [9],29.1 µM
same,inhibitory effect on stomatal opening in intact leaves,[5],inhibitory effect on stomatal opening even in intact leaves
same,induction of phosphorylation of the ABA-responsive kinase substrate,[6],did not induce phosphorylation
same,drought tolerance and wilting,[7],could improve drought tolerance and suppress wilting
S=C=NCc1cccs1 [Compound 2],IC50,"[4]; Commelina benghalensis, 3 h",20.6 µM
S=C=NCc1cccc(CN=C=S)c1 [Compound 4],inhibitory effect on blue light-induced phosphorylation of the plasma membrane proton pump,[1],inhibitory effects
same,inhibitory effect on fusicoccin-induced phosphorylation of the plasma membrane proton pump,[1],inhibitory effects
same,drought tolerance and wilting,[8],could improve drought tolerance and suppress wilting over a long period of time
same,IC50,[4]; [9],1.7 µM
same,inhibitory effect on stomatal opening in intact leaves,[5],inhibitory effect on stomatal opening even in intact leaves
same,persistence of the stomatal opening inhibitory effect,"[5]; chrysanthemum leaves, 48 hours incubation, m-Bis-BITC 50 µM, FIG. 5",excellent in the persistence
same,drought tolerance and wilting,[7],could improve drought tolerance and suppress wilting
"S=C=NCc1cc(CN=C=S)cc(CN=C=S)c1 [Compound 5, 1,3,5-tris(isothiocyanatomethyl)benzene]",inhibitory effect on blue light-induced phosphorylation of the plasma membrane proton pump,[1],inhibitory effects
same,inhibitory effect on fusicoccin-induced phosphorylation of the plasma membrane proton pump,[1],inhibitory effects
same,IC50,"[4]; Commelina benghalensis, 3 h",0.44 µM
"S=C=NC[C@H]1CC[C@H](CN=C=S)CC1 [Compound 27, trans-1,4-bis(isothiocyanatomethyl)cyclohexane]",IC50,"[4]; Commelina benghalensis, 3 h",11.4 µM
